Results published in publication PMC4005910 (Cell Reports, 2014).

Legend:
[1] = Solubility of peptide for TAP binding test; assay type: physicochemical; conditions: could not be tested for TAP binding
cytoplasmatic peptidase = conditions: half-life; ref Lazaro et al., 2011; cited from earlier work

| Sequence | solubility [1] | cytoplasmatic peptidase stability, t1/2 (cytoplasmatic peptidase) [s] |
| --- | --- | --- |
| GTTSTLQEQIAW [GW12] | insoluble |  |
| KAFSPEVIPMF [KF11] |  | 13 |
